Values belong to the compound of their own block, whether it stands above or below them.
How the values were obtained:
[1] = test system: CD4+CD25− T cells from C56BL/6 mice; assay: Th17 induction (iTh17) and activation of CD4+CD25− T cells, SOCS1 monomer vs dimer; format: cell-based, mouse; settings: Th17 inducing conditions, peptide 20 μM, 5 days
Description: FIG. 11. […] CD4+CD25− T cells from B6 mice were in the presence of Th17 inducing conditions in the presence of SOCS1 monomer or dimer for 5 days. Cells were re-stimulated with PMA, ionomycin, and brefeldin, followed by staining with anti-CD4, anti-IL17, and anti-CD25 antibodies.
Induction of Th17 cells, iTh17, and the effect of treatment on induction is illustrated in FIG. 11. CD4^+CD25^− T cells from C56BL/6 mice were incubated for 5 days at 37° C. under 1) control conditions (anti-CD3 (10 μg/ml), anti-CD28 (1.5 μg/ml)); 2) Th17 inducing conditions (anti-CD3, anti-CD28, IL-6 (20 ng/ml), TGF-β (5 ng/ml)); 3) Th17 inducing conditions with SOCS1 monomer (20 μM), or Th17 inducing conditions with SOCS1 dimer (20 μM). Following a 5-day incubation, cells were re-stimulated with phorbol myristic acetate (PMA) (50 ng/ml), ionomycin (1 μM), and brefeldin A (10 μg/ml). To assess Th17 differentiation, cells were stained with anti-CD4 and anti-IL-17A antibodies. To assess activation, cells were stained with anti-CD4 and anti-CD25 antibodies.

JAK2 = JAK2 (Homo sapiens, UniProt O60674); assay: Binding to the activation loop of JAK2; settings: dimer compared with monomer
Anti-cellular activity = format: cell-based; settings: dimer compared with monomer
SOCS1 = SOCS1 expression (qPCR, relative to GAPDH) in healthy control PBMCs treated in vitro; format: cell-based, human; settings: chloroquine diphosphate salt for 12 and 24 h
Description: FIGS. 9A and 9B. SOCS1 expression is not affected by chloroquine treatment, but is increased by dexamethasone treatment. (FIG. 9A) PBMCs, taken from healthy controls, were treated with (FIG. 9A) chloroquine diphosphate salt at the indicated molar concentrations for 12 and 24 h or (FIG. 9B) dexamethasone at the indicated molar concentrations for 3, 6, 12, or 24 h. Post treatment, SOCS1 expression, relative to GAPDH, was assessed via qPCR. Results shown as mean±s.e.m. The Kruskal-Wallis test followed by the Dunn's Multiple Comparison Test was chosen to assess statistical significance. (*P<0.05).
PBMCs were purified from heparinized blood by Ficoll-Paque gradient centrifugation. Briefly, whole blood was diluted with PBS (1:1) and gently layered on the Ficoll (Lymphocyte Separation Medium; Cellgro, Manassas, Va.). […]
Using the Promega RNA extraction protocol, total RNA was extracted from human PBMCs ex vivo or from mouse CD4^+CD25^− cells after being cultured under control (anti-CD3 and anti-CD28) or Th17 inducing conditions in the presence or absence of SOCS1-KIR peptide. cDNA synthesis and qPCR were performed as described in (Collins et al. 2011), with modifications. […] The amplification reactions took place in a PTC-200 Peltier Thermal Cycler with a CHROMO 4 Continuous Fluorescence Detector (BioRad). […] The fold change in expression was calculated using the ΔΔCT method.

SLE patients = assay: Subgroup analysis of SLE patients with and without prednisone treatment (PBMC western blot, RT-PCR); format: in vivo, human; settings: SLE patients receiving vs not receiving prednisone
Source text: FIGS. 20A-20F. […] Results shown are mean±SE; *represents significant Pearson correlation; ^ represents a t-test with significant mean difference. Correlation was considered significant at 0.05 level (2 tailed).
The UF Institutional scientific research and review board (IRB) on human subjects approved the study protocol. Written informed consent were obtained from all patients and controls in the study. In all, 34 SLE patients and 11 healthy controls were enrolled in the present study (Table 5). All SLE patients fulfilled the 1982 American College of Rheumatology (ACR) revised criteria for SLE (Tan et al. 1982). The patient's age ranged from 22 to 73 years while the health controls age ranged from 27 to 55 years. Healthy controls (N=11) were recruited from the outpatient clinics at the participating institutions. All patients underwent baseline investigations as per clinical requirements. Disease activity was assessed by the SLE disease activity index (SLEDAI) (Bombardier et al. 1992).
PBMCs were purified from heparinized blood by Ficoll-Hypaque gradient centrifugation. Briefly, whole blood was diluted with PBS (1:1) and gently layered on Ficoll (Lymphocyte Separation Medium; Cellgro, Manassas, Va.). Cells were centrifuged continuously at 400×g for 20 minutes. PBMCs were collected from the interface layer and washed 3 times with PBS. After isolation, PBMCs were lysed with RNA lysis buffer (Promega) and stored at −80° C. until RNA extraction and qPCR protocols were performed.
RT-PCR was performed to determine the transcript levels of SOCS1, SOCS3 and STAT1 genes in PBMCs, relative to GAPDH. In brief, cDNA synthesis was performed using the iQ cDNA synthesis kit (Bio-Rad; Hercules, Calif.). The qPCR was subsequently performed using the iQ SYBR Green Super mix (Bio-Rad) and gene-specific primers for SOCS1, SOCS3, IFN-G and IL-27. The real time RT-PCR reaction was performed on CFX Connect™-Real time system. The PCR for the target gene and GAPDH was duplicated twice for each sample and the results were corrected for GAPDH expression as an internal control. Further the data was analyzed using CFX Manager™ software version 3.0 (Bio-Rad technologies, Inc.).
Frozen PMBC cell pellets were thawed and lysed in RIPA lysis buffer (Santa Cruz Technologies, Inc.) followed by protein estimation through BSA 2.0 mg/ml standard curve preparation with Pierce protein assay reagents (Thermo Scientific Product #23209). Equal quantities of proteins were loaded and separated in 4%-12% SDS PAGE gel (Bio-rad) and separated proteins were transferred to nitrocellulose membrane (Bio-Rad Laboratories, Hercules, Calif.). The membranes were then blocked and incubated with polyclonal anti-rabbit antibodies specific to the KIR regions of SOCS1 and SOCS3 (a kind gift from Dr. Howard Johnson Labs, UF), anti-pSTAT1; anti-pERK1/2; anti-pAKT and for total STAT1; ERK1/2 and AKT respectively (Cell signaling). Further probed with appropriate secondary antibodies conjugated to HRP, and visualized with the ECL detection system according to the manufacturer's instruction (Pierce; Thermo Scientifics) The GAPDH was used as a loading control. The results were calculated as densitometry arbitrary units using the J image online software.

Chain of JAK2 (O60674 whole entry, species assumed): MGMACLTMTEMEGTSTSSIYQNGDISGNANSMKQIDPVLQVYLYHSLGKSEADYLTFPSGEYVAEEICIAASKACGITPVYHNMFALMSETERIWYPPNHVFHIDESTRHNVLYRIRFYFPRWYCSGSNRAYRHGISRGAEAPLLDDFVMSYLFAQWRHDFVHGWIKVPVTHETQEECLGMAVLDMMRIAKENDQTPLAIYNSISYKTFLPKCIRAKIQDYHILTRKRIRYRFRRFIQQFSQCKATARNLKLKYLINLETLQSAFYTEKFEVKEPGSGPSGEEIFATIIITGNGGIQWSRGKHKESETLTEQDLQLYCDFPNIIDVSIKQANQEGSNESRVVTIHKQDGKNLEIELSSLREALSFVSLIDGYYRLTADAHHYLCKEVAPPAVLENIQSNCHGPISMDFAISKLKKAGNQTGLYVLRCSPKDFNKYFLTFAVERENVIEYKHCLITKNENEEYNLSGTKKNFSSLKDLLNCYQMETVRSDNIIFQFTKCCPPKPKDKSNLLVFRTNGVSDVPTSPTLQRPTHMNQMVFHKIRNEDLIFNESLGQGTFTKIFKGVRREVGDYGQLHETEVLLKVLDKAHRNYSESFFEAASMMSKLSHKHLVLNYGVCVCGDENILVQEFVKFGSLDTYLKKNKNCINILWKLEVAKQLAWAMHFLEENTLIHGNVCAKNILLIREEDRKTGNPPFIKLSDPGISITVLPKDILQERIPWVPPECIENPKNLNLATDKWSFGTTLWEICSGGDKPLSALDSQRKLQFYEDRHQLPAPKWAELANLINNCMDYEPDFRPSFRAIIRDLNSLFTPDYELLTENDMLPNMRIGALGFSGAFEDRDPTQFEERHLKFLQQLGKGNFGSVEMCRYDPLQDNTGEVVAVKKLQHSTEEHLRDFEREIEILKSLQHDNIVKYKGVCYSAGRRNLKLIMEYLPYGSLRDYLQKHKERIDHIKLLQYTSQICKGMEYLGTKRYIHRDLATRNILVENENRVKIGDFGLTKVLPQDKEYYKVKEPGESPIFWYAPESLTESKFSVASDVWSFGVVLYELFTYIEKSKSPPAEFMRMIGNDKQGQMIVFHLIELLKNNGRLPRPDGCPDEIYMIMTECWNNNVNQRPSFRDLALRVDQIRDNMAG

Avidity for the activation loop of JAK2 (JAK2): significantly increased the avidity
Compound: DTHFRTFRSHSDYRRIGGGGGGDTHFRTFRSHSDYRRI (SOCS1-KIR dimer peptide) [SOCS1-KIR mimetic as a dimer with a six glycine (G) linker]
Inhibition of CD4+ T cell activation (CD25 staining) [1]: More Effective than SOCS1 Monomer
Inhibition of iTh17 induction (IL-17A staining) [1]: greater inhibitory effects on iTh17 than did the monomer
Anti-cellular activity (Anti-cellular activity): increased anti-cellular activity

Compound: CCN(CC)CCCC(C)Nc1ccnc2cc(Cl)ccc12 (stereo not shown) [chloroquine]
SOCS1 expression (SOCS1): not affected

Compound: C[C@]12C=CC(=O)C=C1CC[C@@H]1[C@@H]2C(=O)C[C@@]2(C)[C@H]1CC[C@]2(O)C(=O)CO [prednisone]
SOCS 1/3 message expression (SLE patients): no effect
SOCS3 protein levels (SLE patients): no effect
STAT1 phosphorylation (SLE patients): no effect
SOCS1 protein levels (SLE patients; significant in inactive SLEDIA (n=9, p<0.001)): consistently had higher SOCS1 protein levels
pErk1/2 activation (SLE patients; significant in inactive SLEDIA patients): higher levels of pErk1/2 activation
